Reference: patent US20250034196A1, “ESTER DERIVATIVES OF N4-HYDROXYCYTIDINE AND USE THEREOF” (priority 2021, published 2025)

Legend:
in vitro [1] = format: in vitro ADME; settings: plasma
Protocol: (§1) Preparation of Solutions: Stock solution (10 mM) of each of test compounds was prepared in DMSO. The stock solution for each compound was then diluted into 100 μM with acetonitrile.
Plasma Incubations: Plasma incubations were conducted in duplicate in 96-well plate at 37° C. Plasma was prewarmed in a total volume of 198 μL for 5 min at 37° C., then added 2 μL of 100 μM test compound into an incubation well containing plasma, pipette-mixed to achieve a homogenous suspension and immediately transferred 20 μL incubate as a 0 min sample to wells in a “Quenching” plate followed by adding 200 μL of acetonitrile with metolazone as internal standard (IS) and pipette-mixing. At 2, 5, 60, and 90 min, pipette-mixed the incubate and serially transfer samples of 20 μL incubate per time point to wells in a separate “Quenching” plate followed by adding 200 μL of acetonitrile with metolazone as IS and pipette-mixing.
(§2) Sample Analysis: The 96-well plate was centrifuged at 6000 g for 10 min. The supernatant was injected onto the LC-MS/MS system for analysis.

in vivo = assay: in vivo; parameters: species or system Beagle Dogs; settings: dog, po, 22 mg/kg; for AUC(0-inf): AUCINF of CH2107 (Molnupiravir); for AUC(0-t): AUClast of CH2107 (Molnupiravir); for Cmax: Cmax of CH2107 (Molnupiravir); for MRT inf: MRTINF of CH2107 (Molnupiravir); for half-life: T1/2 of CH2107 (Molnupiravir); for Tmax: Tmax of CH2107 (Molnupiravir)
Protocol: Example 174: Pharmacokinetic Study of EX-2 (CH2101), Molnupiravir (CH2017) and its Metabolite NHC (CH2018) Following a Single PO Administration of EX-2 (CH2101) or Molnupiravir (CH2017) in Male and Female Beagle Dogs
Both test compounds were prepared in 1% methyl cellulose (400 cps, SIGMA, SLCF9694) solution in purified water.
A total of 6 male+6 female Beagle Dogs, approximately 7-13 kg of bodyweight, were originally purchased from Marshall Biotechnology Co., Ltd. The animals were fasted overnight prior to dosing and food was re-provided after 4 hours post dosing.
The animals were restrained manually, and approximately 1 mL of blood at each time point was collected into pre-cooled EDTA-K2 tubes via cephalic or saphenous veins. Blood samples were centrifuged at 4° C. (4000 rpm. 5 min) to obtain plasma within 30 min after sample collection. All samples were stored at approximately −80° C. until analysis. The backup samples will be discarded after the in vivo experiment has been completed for two months unless requested.

in vitro [2] = settings: African green monkey
SARS-CoV-2 = settings: 800 mg twice a day for 5 days, early infected patients; cited from earlier work
in vitro [3] = format: in vitro ADME; settings: microsomes, pH 7.4
Protocol: as §1
(§3) Microsome Incubations: Incubation mixtures were prepared in a total volume of 200 μL with final component concentrations as follows: 0.1M PBS (pH 7.4), NADPH (2 mM) and liver microsomes (0.2 mg/mL) as well as test compound (1 μM) or Molnupiravir (1 μM) as a positive control, wherein the NADPH was added after a 5-min preincubation of all other components at 37° C. Pipette-mixed to achieve a homogenous suspension and immediately transferred 20 μL incubate as a 0 min sample to wells in a “Quenching” plate followed by adding 200 μL of acetonitrile with metolazone as IS and pipette-mixing. At 2, 5, 10, and 45 min, pipette-mixed the incubate and serially transfer samples of 20 μL incubate per time point to wells in a separate “Quenching” plate followed by adding 200 μL of acetonitrile with metolazone as IS and pipette-mixing.
as §2

Microsome stability = format: in vitro ADME, Monkey; settings: Monkey liver microsomes 0.2 mg/mL, NADPH, 1 μM
Protocol: as §1, §3, §2

[4] = both sexes, beagle, Plasma concentration of CH2107 (Molnupiravir)
[5] = female, beagle, Plasma concentration of CH2107 (Molnupiravir)
[6] = male, beagle, Plasma concentration of CH2107 (Molnupiravir)

With `CC(C)C(=O)OC[C@H]1O[C@@H](n2ccc(NO)nc2=O)[C@H](O)[C@@H]1O` [Molnupiravir] the half-life at 1 µM (in vitro [1]; dog) was 39.4 min, the half-life at 1 µM (in vitro [1]; human) was 66.2 min and the half-life at 1 µM (in vitro [1]; monkey) was 25.8 min. For the same compound, the half-life at 1 µM (in vitro [1]; mouse) was 25.8 min, the half-life at 1 µM (in vitro [1]; rat) was 3.3 min and the AUC(0-inf) (in vivo; both sexes, Beagle) was 932 ng·h/mL. For the same compound, the AUC(0-t) (in vivo; both sexes, Beagle) was 930 ng·h/mL, the Cmax (in vivo; both sexes, Beagle) was 1320 ng/mL and the MRT inf (in vivo; both sexes, Beagle) was 38.9 min. For the same compound, the half-life (in vivo; both sexes, Beagle) was 25.2 min, the concentration at 0.083 hr (in vivo; [4]) was 496 ng/mL and the concentration at 0.25 hr (in vivo; [4]) was 1300 ng/mL. For the same compound, the concentration at 0.5 hr (in vivo; [4]) was 1010 ng/mL, the concentration at 1 hr (in vivo; [4]) was 230 ng/mL and the concentration at 2 hr (in vivo; [4]) was 28.2 ng/mL. For the same compound, the concentration at 4 hr (in vivo; [4]) was 4.75 ng/mL, the concentration at 6 hr (in vivo; [4]) was 5.45 ng/mL and the concentration at 8 hr (in vivo; [4]) was 1.08 ng/mL. For the same compound, the Tmax (in vivo; both sexes, beagle) was 18.8 min, the “AUCmale/female of CH2107 (Molnupiravir)” value (in vivo; both, Beagle) was 171% and the “AUCmale/female of EX-1/NHC/CH2018” value (in vivo; both, Beagle) was 128%. The “Plasma concentration of EX-1/NHC/CH2018” value (in vivo; both, Beagle, 0.083 hr) was 527 ng/mL, the “Plasma concentration of EX-1/NHC/CH2018” value (in vivo; both, Beagle, 0.25 hr) was 5653 ng/mL and the “Plasma concentration of EX-1/NHC/CH2018” value (in vivo; both, Beagle, 0.5 hr) was 8040 ng/mL. The “Plasma concentration of EX-1/NHC/CH2018” value (in vivo; both, Beagle, 1 hr) was 8648 ng/mL, the “Plasma concentration of EX-1/NHC/CH2018” value (in vivo; both, Beagle, 2 hr) was 4038 ng/mL and the “Plasma concentration of EX-1/NHC/CH2018” value (in vivo; both, Beagle, 4 hr) was 970 ng/mL. For the same compound, the “Plasma concentration of EX-1/NHC/CH2018” value (in vivo; both, Beagle, 6 hr) was 244 ng/mL, the “Plasma concentration of EX-1/NHC/CH2018” value (in vivo; both, beagle, 8 hr) was 105 ng/mL and the “Plasma concentration of EX-1/NHC/CH2018” value (in vivo; both, beagle, 24 hr) was 18.4 ng/mL. The “AUCINF of CH2107 (Molnupiravir)” value (in vivo; female, Beagle) was 778 ng·h/mL, the “AUClast of CH2107 (Molnupiravir)” value (in vivo; female, Beagle) was 778 ng·h/mL and the AUC(0-inf) (in vivo; female, Beagle) was 598 ng·h/mL. For the same compound, the AUC(0-t) (in vivo; female, Beagle) was 596 ng·h/mL, the Cmax (in vivo; female, Beagle) was 1080 ng/mL and the “Plasma concentration of CH2107 (Molnupiravir)” value (“Plasma concentration of CH2107” below) (in vivo; female, beagle, 0.5 hr) was 693 ng/mL. For the same compound, the “Plasma concentration of CH2107” value (in vivo; female, beagle, 1 hr) was 120 ng/mL, the “Plasma concentration of CH2107” value (in vivo; female, beagle, 4 hr) was 8.06 ng/mL and the “Plasma concentration of CH2107” value (in vivo; female, beagle, 6 hr) was 5.45 ng/mL. The “Plasma concentration of CH2107” value (in vivo; female, beagle, 8 hr) was 1.08 ng/mL, the concentration at 0.5 hr (in vivo; [5]) was 499 ng/mL and the concentration at 1 hr (in vivo; [5]) was 207 ng/mL. For the same compound, the concentration at 4 hr (in vivo; [5]) was 8.06 ng/mL, the concentration at 6 hr (in vivo; [5]) was 5.45 ng/mL and the concentration at 8 hr (in vivo; [5]) was 1.08 ng/mL. For the same compound, the Tmax (in vivo; female, beagle) was 30 min, the “AUCINF of CH2107 (Molnupiravir)” value (in vivo; male, Beagle) was 1246 ng·h/mL and the “AUClast of CH2107 (Molnupiravir)” value (in vivo; male, Beagle) was 1245 ng·h/mL. For the same compound, the “Cmax of CH2107 (Molnupiravir)” value (in vivo; male, Beagle) was 1680 ng/mL, the “MRTINF of CH2107 (Molnupiravir)” value (in vivo; male, Beagle) was 34 min and the “T1/2 of CH2107 (Molnupiravir)” value (in vivo; male, Beagle) was 21.1 min. For the same compound, the “Plasma concentration of CH2107” value (in vivo; male, Beagle, 0.25 hr) was 1680 ng/mL, the AUC(0-inf) (in vivo; male, Beagle) was 1100 ng·h/mL and the AUC(0-t) (in vivo; male, Beagle) was 1100 ng·h/mL. The MRT inf (in vivo; male, Beagle) was 27.7 min, the half-life (in vivo; male, Beagle) was 12.7 min and the “Plasma concentration of CH2107” value (in vivo; male, beagle, 0.5 hr) was 1430 ng/mL. The “Plasma concentration of CH2107” value (in vivo; male, beagle, 2 hr) was 11.1 ng/mL, the “Plasma concentration of CH2107” value (in vivo; male, beagle, 4 hr) was 1.44 ng/mL and the Cmax (in vivo; male, beagle) was 1450 ng/mL. It also gave a concentration at 0.25 hr (in vivo; [6]) of 1450 ng/mL, a concentration at 0.5 hr (in vivo; [6]) of 1420 ng/mL and a concentration at 2 hr (in vivo; [6]) of 9.81 ng/mL. For the same compound, the concentration at 4 hr (in vivo; [6]) was 1.44 ng/mL, the Tmax (in vivo; male, beagle) was 15 min and the CC50 at 4 days (in vitro [2]) was greater than 100 µM. For the same compound, the “Reduction in patients progressing into hospitalizations” value (SARS-CoV-2) was 50%, the half-life at 1 µM (in vitro [3]; dog) was 3.9 min and the half-life at 1 µM (in vitro [3]; human) was 71.3 min. The half-life at 1 µM (in vitro [3]; mouse) was 5.6 min, the half-life at 1 µM (in vitro [3]; rat) was 13.8 min and the T1/2 (Microsome stability) was 4.7 min.
